Four compounds from ChEMBL document CHEMBL1201862, “PubChem BioAssay data set” (2004) can be followed below.

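Compound exposure: 48 hours, 5 concentrations, 96-well plates. The concentration for 50% growth inhibition is given as GI50.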 The source made the active and inactive calls. No stated cut-off is given here; in the data, active = GI50 up to about 1.1 µM and inactive = higher.

Among the test systems are COLO 205; CAKI-1; SNB-75; NCI-H460; SNB-19; SK-MEL-5; OVCAR-8; HOP-92; SN12C; MOLT-4; NCI-H226; RXF 393; HCT-116; HL-60; EKVX; OVCAR-5; HCT-15; MCF7; UACC-257; MDA-MB-435.
What all share (experiment): NCI tumour cell line growth inhibition, 48 h

With `Cn1c(=O)c2c(nc3n2CCCC(=O)N3CCCCl)n(C)c1=O`, the GI50 in the experiment on COLO 205, in the experiment with CAKI-1, with SNB-75, in the experiment on NCI-H460, in the experiment on SNB-19 and with SK-MEL-5 was > 100 µM (inactive) each time. The GI50 in the experiment with OVCAR-8, in the experiment with HOP-92, with SN12C, with MOLT-4, in the experiment with NCI-H226 and in the experiment on RXF 393 was > 100 µM (inactive) throughout. Also, the GI50 in the experiment with HCT-116 was > 100 µM (inactive); in the experiment with HL-60 it was > 100 µM (inactive); in the experiment on EKVX it was > 100 µM (inactive); with OVCAR-5, > 100 µM (inactive); in the experiment on HCT-15 it was greater than 100 µM; with MCF7 it was > 100 µM (inactive). Besides, the GI50 with UACC-257 and in the experiment with MDA-MB-435 was > 100 µM (inactive) throughout.
Turning to `N[C@@H]1c2c(Br)sc(Br)c2[C@H](O)[C@@H]1O`, the GI50 in the experiment with COLO 205, with CAKI-1, in the experiment on SNB-75, in the experiment on NCI-H460, with SNB-19 and with SK-MEL-5 was > 100 µM (inactive) each time. The GI50 with OVCAR-8, in the experiment on HOP-92, in the experiment on SN12C, in the experiment with MOLT-4, with NCI-H226 and in the experiment on RXF 393 was > 100 µM (inactive) each time. Moreover, the GI50 with HCT-116 was > 100 µM (inactive); in the experiment with HL-60 it was > 100 µM (inactive); in the experiment on EKVX, > 100 µM (inactive); in the experiment with OVCAR-5 it was > 100 µM (inactive); in the experiment with HCT-15, greater than 100 µM; in the experiment with MCF7, > 100 µM (inactive). Further, the GI50 in the experiment on UACC-257 and in the experiment with MDA-MB-435 was > 100 µM (inactive) throughout.
On to `O=[N+]([O-])/C=C/c1c(Cl)cccc1Cl`, for which the GI50 in the experiment on COLO 205 was 0.849 µM (active); in the experiment on CAKI-1, 3.66 µM (inactive); in the experiment with SNB-75, 18 µM (inactive); with NCI-H460 it was 2.61 µM (inactive); in the experiment with SNB-19, 5.28 µM (inactive); in the experiment with SK-MEL-5, 3.13 µM (inactive). In addition, the GI50 was 1.4 µM (inactive) in the experiment with OVCAR-8; 4.9 µM (inactive) in the experiment with HOP-92; 1.53 µM (inactive) in the experiment with SN12C; 1.07 µM (active) in the experiment with MOLT-4; 10 µM (inactive) in the experiment with NCI-H226; 10.4 µM (inactive) in the experiment with RXF 393. The GI50 in the experiment with HCT-116 is 2.7 µM (inactive); with HL-60, 1.24 µM (inactive); in the experiment with EKVX, 5.65 µM (inactive); in the experiment on OVCAR-5, 8.95 µM (inactive); in the experiment with HCT-15, 1.48 µM; with MCF7, 1.64 µM (inactive). For the same compound, the GI50 in the experiment on UACC-257 is 3.09 µM (inactive); in the experiment on MDA-MB-435, 1.77 µM (inactive).
Turning to `COc1cccc(/C=N/NC(=O)CN(C)C)c1O`, the GI50 in the experiment with COLO 205 is > 100 µM (inactive); in the experiment with CAKI-1, > 100 µM (inactive); with SNB-75, < 0.01 µM (active); in the experiment with NCI-H460, > 100 µM (inactive); in the experiment on SNB-19, > 100 µM (inactive); in the experiment on SK-MEL-5 it was > 100 µM (inactive). Also, the GI50 was > 100 µM (inactive) in the experiment on OVCAR-8; > 100 µM (inactive) with HOP-92; > 100 µM (inactive) in the experiment with SN12C; > 100 µM (inactive) in the experiment with MOLT-4; 72.8 µM (inactive) in the experiment on NCI-H226; > 100 µM (inactive) with RXF 393. The GI50 in the experiment with HCT-116 is > 100 µM (inactive); in the experiment with HL-60, > 100 µM (inactive); in the experiment on EKVX, > 100 µM (inactive); in the experiment with OVCAR-5 it was > 100 µM (inactive); with HCT-15 it was greater than 100 µM; in the experiment with MCF7, > 100 µM (inactive). For the same compound, the GI50 in the experiment with UACC-257 and in the experiment with MDA-MB-435 was > 100 µM (inactive) in each case.
